From ChEMBL document CHEMBL1140246, “Synthesis of cationic beta-vinyl substituted meso-tetraphenylporphyrins and their in vitro activity against herpes simplex virus type 1” (2005) come the findings set out here.

In test [1] the test system is Vero. Description: Photocytotoxicity was evaluated on the cell growth inhibition using Vero cells were at the concentration of 1 uM after 48 hr of incubation. It counts as functional, Chlorocebus sabaeus.
Test [2] relates to Vero. Nature of the test: Photocytotoxicity was evaluated on the cell growth inhibition using Vero cells were at the concentration of 5 uM after 48 hr of incubation. It counts as functional, Chlorocebus sabaeus.
The test system of test [3] is Vero. Nature of the test: Photocytotoxicity was evaluated on the cell growth inhibition using Vero cells were at the concentration of 10 uM after 48 h of incubation. Type of test: functional, Chlorocebus sabaeus.
For test [4], the system named is Vero. Description: Photocytotoxicity was evaluated on the cell growth inhibition using Vero cells were at the concentration of 20 uM after 48 hr of incubation. Type of test: functional, Chlorocebus sabaeus.
Test [5] concerns Vero. Description: Photocytotoxicity was evaluated on the cell growth inhibition using Vero cells were at the concentration of 0.1 uM after 48 hr of incubation. It counts as functional, Chlorocebus sabaeus.
Test [6] deals with Vero. Nature of the test: Photocytotoxicity was evaluated on the cell growth inhibition using Vero cells were at the concentration of 0.5 uM after 48 hr of incubation. Type of test: functional, Chlorocebus sabaeus.
Test [7] has as its system Vero. Nature of the test: Photocytotoxicity was evaluated on the cell growth inhibition using Vero cells were at the concentration of 0.25 uM after 48 hr of incubation. It counts as functional, Chlorocebus sabaeus.
For test [8], the system named is Human alphaherpesvirus 1. Nature of the test: Photovirucidal effect against herpes simplex virus type 1 after 5 mins of irradiation time with white light of 50 mW/cm2. Type of test: functional.
Test [9] relates to Human alphaherpesvirus 1. Description: Photovirucidal effect against herpes simplex virus type 1 with no irradiation time with white light of 50 mW/cm2. It counts as functional.
Test [10] has as its system Human alphaherpesvirus 1. Nature of the test: Photovirucidal effect against herpes simplex virus type 1 after 15 mins of irradiation time with white light of 50 mW/cm2. It counts as functional.
Test [11] relates to Human alphaherpesvirus 1. Nature of the test: Photostability against herpes simplex virus type 1 after 1 min of irradiation with total light dose of 3 mW/cm**2. Type of test: functional.
Test [12] concerns Human alphaherpesvirus 1. Description: Photostability against herpes simplex virus type 1 after 3 min of irradiation with total light dose of 9 mW/cm**2. Type of test: functional.
Test [13] relates to Human alphaherpesvirus 1. Nature of the test: Photostability against herpes simplex virus type 1 after 5 min of irradiation with total light dose of 15 mW/cm**2. Type of test: functional.
Test [14] concerns Human alphaherpesvirus 1. Description: Photostability against herpes simplex virus type 1 after 10 min of irradiation with total light dose of 30 mW/cm**2. Type of test: functional.
Test [15] concerns Human alphaherpesvirus 1. Description: Photostability against herpes simplex virus type 1 after 15 min of irradiation with total light dose of 45 mW/cm**2. Type of test: functional.
Test [16] concerns Vero. Description: Concentration required for cellular cytotoxicity against Vero cells.
For test [17], the system named is Vero. Nature of the test: Photocytotoxicity was evaluated on the cell growth inhibition using Vero cells were at the concentration of 10 uM after 48 hr of incubation. It counts as functional, Chlorocebus sabaeus.
In test [18] the test system is Vero. Description: Photocytotoxicity was evaluated on the cell growth inhibition using Vero cells were at the concentration of 20 uM after 48 h of incubation. Type of test: functional, Chlorocebus sabaeus.

In general, CC50 refers to the concentration giving 50% cytotoxicity. Read a low CC50 as greater toxicity to the cells. As to `C[n+]1ccccc1/C=C/c1cc2[nH]c1c(-c1ccccc1)c1nc(c(-c3ccccc3)c3nc(c(-c4ccccc4)c4ccc([nH]4)c2-c2ccccc2)C=C3)C=C1.[Cl-]`, the Viability in the test on Vero [1] came out at 95.3%; in the test on Vero [2], 84.6%; in the test with Vero [3], 69%; in the test with Vero [4], 18.8%; in the test on Vero [5], 104.8%; in the test with Vero [6] it was 101%. The Viability with Vero [7] is given as 103.3%. Further, the Virus inactivation amounted to 96.98% in the test with Human alphaherpesvirus 1 [8], 27.8% in the test on Human alphaherpesvirus 1 [9] and 99.61% with Human alphaherpesvirus 1 [10]. The Intensity in the test with Human alphaherpesvirus 1 [11] was 100%; in the test with Human alphaherpesvirus 1 [12], 94%; with Human alphaherpesvirus 1 [13], 93%; in the test with Human alphaherpesvirus 1 [14], 88%; in the test with Human alphaherpesvirus 1 [15], 83%. The cytotoxic concentration (CC50) in the test with Vero [16] worked out at 13.7 µM.
On to `C[n+]1ccc(/C=C/c2cc3[nH]c2c(-c2ccccc2)c2nc(c(-c4ccccc4)c4nc(c(-c5ccccc5)c5ccc([nH]5)c3-c3ccccc3)C=C4)C=C2)cc1.[Cl-]`, for which the Viability amounted to 97.3% with Vero [1]; 90.8% with Vero [2]; 104.5% in the test with Vero [5]; 98.3% in the test with Vero [6]; 62% with Vero [17]; 28% in the test with Vero [18]. Besides, the Viability in the test on Vero [7] was determined as 99.9%. Besides, the Virus inactivation in the test on Human alphaherpesvirus 1 [8] is reported as 0%; in the test with Human alphaherpesvirus 1 [10], 48.99%. For the same molecule, the Intensity in the test with Human alphaherpesvirus 1 [11] is 100%; in the test with Human alphaherpesvirus 1 [12], 99%; in the test with Human alphaherpesvirus 1 [13] it was 96%; with Human alphaherpesvirus 1 [14], 93%; in the test with Human alphaherpesvirus 1 [15], 91%. Besides, in the test on Vero [16], the CC50 came to 13.5 µM.
